The values that follow come from patent publication US8852876B2, “Label free biosensors and cells” (Corning Incorporated, priority 2008, dated 2014).

For data set [1], the system named is EGF-induced response of quiescent A431 cells. As to the kind of experiment: Effect of compound pretreatment on EGF-induced DMR response. It counts as cell-based, human. The note with it: quiescent A431 cells; 32 nM EGF. The procedure: Both A431 and CHO-K1 cells were grown in Dulbecco's modified Eagle's medium (DMEM) supplemented with 10% fetal calf serum, 100 μg/ml penicillin, and 100 μg/ml streptomycin. For cell culture, certain numbers of cells (2×10^5 to 1×10^6), either A431 or CHO-K1, were suspended in […] medium were placed in each well of a 96 well Corning Epic Biosensor microplate, and were cultured at 37° C. in air/5% CO2 for certain time until the cell density reached ˜90% and above (unless specified). The resulted cells were termed as “profilerating” cells. The “quiescent” cells were obtained by culturing the profilerating cells of desired confluencies with a medium containing no or little (˜0.1% fetal bovine serum (FBS)) for at least 16 hours.
During the assays, the cells in 100 μl medium were subject to two 25 μl HBSS buffer containing 20 mM HEPES, pH 7.4, each separated by at least 15 minutes before 50 μl stimulus-containing solution was applied. During all these steps, a parallel angular interrogation system was used to monitor the real time kinetics of cellular responses. For compound effect studies, a modified protocol was used which starts with 50 μl medium, and subject to sequential treatment: 25 μl HBSS buffer twice (each separated by at least 15 minutes), 50 μl compound solution and finally 50 μl stimulus-containing solution.

In data set [2] the test system is CHO cells. As to the kind of experiment: Biosensor-based cell toxicity (real-time DMR, TM0 resonant peak and band image). More on the design: species or system Chinese hamster. The note with it: for TM0 mode resonance band image: 25 min. From the text:
Profiling compounds by virtue of their cytotoxic and anti-proliferative effects is often used to profile potential anticancer agents. One such phenotype is the compromise in plasma membrane integrity when cells are exposed to cytotoxic agents, including dimethyl sulfoxide (DMSO). Using a waveguide-based biosensor technique, the feasibility for monitoring the effect of DMSO on both Chinese hamster ovary (CHO) and A431 cells was examined. Approximately 10×10^5 cells were placed into each well of a Corning Epic LID microplate. These cells were cultured in serum medium for overnight to ensure that the cells became adherent to the substrate surface and reach at least 80% confluence. The response of cells to DMSO at different concentrations (1%, 2%, 5%, 10%, 15%, 18% and 20%) was examined. Higher concentrations of ˜≧25% of DMSO result in bulk index changes which are beyond the maximum dynamic range of the sensor used and the signal was lost. At least two sets of experiments were carried out for each cell line.
Both A431 and CHO-K1 cells were grown in Dulbecco's modified Eagle's medium (DMEM) supplemented with 10% fetal calf serum, 100 μg/ml penicillin, and 100 μg/ml streptomycin. For cell culture, ˜10×10^5 cells, either A431 or CHO-K1, were suspended in 200 μl medium were placed in each well of a 96 well Corning Epic Biosensor microplate, and were cultured at 37° C. in air/5% CO2 for overnight. Before the assays, the cells were washed once with the corresponding medium. During the assays, the cells in 100 μl medium were subject to two 25 μl HBSS buffer solutions containing 20 mM HEPES, pH 7.4, each separated by at least 15 minutes before 50 μl DMSO solution was applied. During all these steps, a parallel angular interrogation system was used to monitor the real time kinetics of cellular responses.
In one embodiment, the present invention provides a method for high throughput screening compound toxicity on cells using optical biosensors, which comprises of: (a) Provide a microplate that there is an optical-based label free biosensor embedded in the bottom of each well; (b) Place cells into each well to cover the biosensor such that the cells attach and reach high confluency onto the surface of the biosensor; (c) Apply a compound solution into the cell medium of each well; (e) Collect optical waveguide lightmode spectra at certain time. Comparing the PWHM of each compound with a control well wherein the cells are not exposed to any compound solution, the toxicity of compounds can be evaluated using the single data point. If necessary, time-dependent PWHM changes can be also recorded to study the kinetics.
In another embodiment, the present invention provides alternative methods to evaluate compound toxicity, which comprises of: (a) Provide a microplate that there is an optical-based label free biosensor embedded in the bottom of each well; (b) Place cells into each well to cover the biosensor such that the cells attach and reach desired confluency onto the surface of the biosensor; (c) Apply a compound solution into the cell medium of each well; (e) Collect images of TM0 mode resonance angular band of the whole sensor area of each well at certain time. Comparing the widths of the resonant bands of sensors that have been treated with a compound solution with that of a control well wherein the cells are not exposed to any compound solution; the toxicity of compounds can be evaluated.

Data set [3] concerns CHO cells. As to the kind of experiment: Saponin-permeabilized cell assay for cytoskeleton modulators (LID biosensor). It counts as cell-based, Chinese hamster. The note with it: saponin 67 ug/ml. From the text: The method involves the use of pore-forming reagents (e.g, saponin) to generate permeabilized cells which permit soluble proteins to diffuse away. It is known that treatment of the cells with many pore-forming reagents leads to permeabilized cells. Since intracellular macromolecules are highly organized within the cytoplasm of mammalian cells through direct binding to cytoskeletal elements, the permeabilized cells still retain most of the biological functions of living cells by sequestration of intracellular machinery through the cytoskeleton super-assembled structure, although the saponin-treated cells undergo the loss of some portions of biomacromolecules. However, upon disruption of microfilaments there is a dramatic reduction of protein synthesis accompanied by release of these translation components from the cells. Also, many other sequestered biomacromolecules are released from these permeabilized cells after disrupting the cytoskeleton structure. These further released materials from the permeabilized cells result in the loss in mass; thus resulting in the changes in effective refractive index of the cell layer on the surface of a LID biosensor which can be detected by LID biosensors. Thus, the changes obtained using optical biosensors can be used as an indicator of modulators that interfere with the cytoskeleton structure. In one embodiment, the present methods can be used to screen modulators that interfere with the cytoskeleton structure using the method 2500 shown in FIG. 25. In accordance with method 2500 one can monitor the mass redistribution due to pore formation of cell surface membranes induced by pore-forming reagents such as saponin in living cells 1008 by: (a) providing an optical LID biosensors 1004 (step 2502); (b) placing cells 1008 in a cell medium onto the said sensor 1004 (step 2504); (c) Optionally applying a buffer solution (step 2506); (d) applying a solution containing a compound into the cell mediums located on the top surfaces 1010 of covered optical LID biosensors 1004 (step 2508); applying a solution containing a pore-forming reagent (step 2510); and (e) interrogating the covered optical LID biosensors 1010 to monitor the time dependent optical responses which indicate mass redistributions within the permeabilized cells 1008 (step 2512). A Pore-forming reagent is a chemical or biological compound or composition that can result in the formation of pores in cell surface membranes when the cells are exposed to the reagent.
The pore-forming regents include detergents such as saponin and filipin, or toxin such as digitonin or streptolysin O. It is well known that treatment of the cells with these reagents can result in the pore formation in cell surface membrane; the resulted permeabilized cells can release a certain amount of intracellular material, mainly soluble proteins. However, there are a great number of bio-materials that still stay with these permeabilized cells due to the sequestration by directly binding or association with the cytoskeleton structure. As a matter of fact, these permeabilized cells retain many of the biological functions of living cells such as protein synthesis.
FIG. 50 presents the dose-dependent responses of CHO cells adherent on the surface of a LID sensor in response to saponin as a function of time. After the addition of saponin at different concentrations, a different response is evident. At low concentration, there is almost no response. […]

In data set [4] the target is T1, protease activated receptors PAR1 and PAR2 (Homo sapiens, UniProt P25116).
T1 construct: A431 cells which endogenously express PAR1 and PAR2; endogenous in cells; host or cells: A431
T1 sequence (P25116 22-425): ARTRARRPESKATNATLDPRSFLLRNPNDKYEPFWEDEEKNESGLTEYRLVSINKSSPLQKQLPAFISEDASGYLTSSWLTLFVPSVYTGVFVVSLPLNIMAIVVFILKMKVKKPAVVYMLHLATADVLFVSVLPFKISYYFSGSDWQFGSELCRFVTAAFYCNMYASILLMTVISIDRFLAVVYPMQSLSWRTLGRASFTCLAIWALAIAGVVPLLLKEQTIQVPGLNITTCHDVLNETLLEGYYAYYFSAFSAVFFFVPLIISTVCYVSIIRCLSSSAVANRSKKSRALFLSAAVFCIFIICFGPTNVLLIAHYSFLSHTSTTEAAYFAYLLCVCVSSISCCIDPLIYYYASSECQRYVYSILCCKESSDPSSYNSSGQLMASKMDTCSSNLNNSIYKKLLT
It counts as cell-based. The note with it: 40 unit/ml thrombin; modulators 10 μM. As for the experimental part: (§1) Human epidermoid carcinoma A431 cells (American Type Cell Culture) were grown in Dulbecco's modified Eagle's medium (DMEM) supplemented with 10% fetal bovine serum (FBS), 4.5 g/liter glucose, 2 mM glutamine, and antibiotics. ˜3-7.5×10^4 cells at passage 3 to 5 suspended in 200 μl the DMEM medium containing 10% FBS were placed in each well of a 96 well microplate, and were cultured at 37° C. under air/5% CO2 until ˜95% confluency was reached (˜2-4 days).
(§2) The compound or PAR agonist solutions were made in 1×HBSS in order to match the refractive index between the cell medium and compound solution, thus minimizing the unwanted effect of bulk index change due to the introduction of compound solution which can temporarily overwhelms any DMR signal as it occurs.

In data set [5] the test system is protease activated receptors PAR1 and PAR2. It counts as cell-based, human. The settings on record: 100 or 200 nM trypsin; modulators 10 μM. The procedure: as §1, §2

SMILES strings stand for the structures. *1 amine or outer side, *2 acyl side, *3 side chain or, on linkers, in order; H or OH if unused. Where a SMILES comes first, the peptide text is derived from it. Bridges are numbered along the chain shown (N, C = ends). [ ]: non-standard residue; d: D form. Trp(2-yl) = O=C([C@H](Cc1c([*:3])[nH]c2ccccc12)N[*:1])[*:2]; Leu(4R-OH,5-OH) = C[C@](O)(CO)C[C@H](N)C(=O)O; cisHyp = O=C(O)[C@@H]1C[C@H](O)CN1

In the case of `C[S+](C)[O-]` [DMSO, dimethyl sulfoxide], the “Effect of pretreatment on 32 nM EGF-induced response” value in data set [1] is reported as “a little effect on the EGF-induced response”. In addition, the “TM0 mode resonance band image” value is reported as “DMSO-induced resonance band broadening” in data set [2] (18% DMSO, confluency above 70%) and “a second resonance band appearing” in data set [2] (~15% DMSO, ~95% confluency). Also, the “PWHM of TM0 resonant peak over time” value in data set [2] (18% DMSO, cell density below ~25%) is reported as “no change in the PWHM value over time”; in data set [2] (18% DMSO, confluency >70%), “an initial increase in PWHM followed by decreasing PWHM value”. The “DMSO-induced time-dependent response of cell layer, event D” value in data set [2] (DMSO 20%) was “a prolonged and decreased signal due to the loss of proteins or other biological molecules of cells caused by the toxicity of high concentrations of DMSO”. Besides, the “DMSO-induced time-dependent response of cell layer” value in data set [2] (DMSO concentration <20%) is listed as “the response is almost featureless”. Moreover, in data set [2] (~95% confluency, 25 min treatment), the “TM0 mode resonance band image, dependence on DMSO concentration” value was “only higher concentrations cause significant cell toxicity”.

As for `C[C@H]1CCC/C=C/[C@@H]2C[C@H](O)C[C@H]2[C@H](O)/C=C/C(=O)O1` [brefeldin A], the “Effect of compound pre-treatment on saponin-induced response (loss of biomaterials)” value (“Effect … (loss of biomaterials)” for short) in data set [3] was “show no effect on a saponin-induced response”.

On to `C=C1[C@@H](C)[C@H]2[C@H](Cc3ccccc3)NC(=O)[C@]23OC(=O)/C=C/[C@H](O)CCC[C@@H](C)C/C=C/[C@H]3[C@@H]1O` [cytochalasin B], for which, in data set [1], the “Effect of pretreatment on 32 nM EGF-induced response” value is “totally abolished the N-DMR signal”. Also, the “Effect … (loss of biomaterials)” value in data set [3] is given as “cause increased loss of biomaterials”. Further, in data set [4], the “Effect of pretreatment on thrombin-mediated DMR signal” value is reported as “much less effective in suppressing the responses”. In data set [5], the “Effect of pretreatment on trypsin-mediated DMR signal” value is reported as “much less effective in suppressing the responses”.

In the case of `C[C@@H]1NC(=O)[C@H](C[C@@](C)(O)CO)NC(=O)[C@@H]2Cc3c([nH]c4ccccc34)SC[C@H](NC(=O)[C@@H]([C@H](C)O)NC1=O)C(=O)N1C[C@@H](O)C[C@H]1C(=O)N[C@@H](C)C(=O)N2` [phalloidin] (cyclo(A[dT]C[cisHyp]A[Trp(2-yl)][Leu(4R-OH,5-OH)]); thioether 3-6), in data set [1], the “Effect of pretreatment on 32 nM EGF-induced response” value was “hardly any effect on the EGF-induced response”. In addition, in data set [3], the “Effect … (loss of biomaterials)” value is reported as “delay the loss of biomaterials in saponin-treated cells”. The “Effect of pretreatment on thrombin-mediated DMR signal” value in data set [4] was “neither a stabilizing polymeric F-actin agent phalloidin nor a microtubule disrupter nocodazole had significant effect”. The “Effect of pretreatment on trypsin-mediated DMR signal” value in data set [5] is recorded as “neither a stabilizing polymeric F-actin agent phalloidin nor a microtubule disrupter nocodazole had significant effect”.

`CC[C@]1(O)C[C@@H]2CN(CCc3c([nH]c4ccccc34)[C@@](C(=O)OC)(c3cc4c(cc3OC)N(C)[C@H]3[C@@](O)(C(=O)OC)[C@H](OC(C)=O)[C@]5(CC)C=CCN6CC[C@]43[C@@H]65)C2)C1` [vinblastine]: the “Effect of pretreatment on 32 nM EGF-induced response” value in data set [1] was “hardly any effect on the EGF-induced response”. Further, in data set [3], the “Effect … (loss of biomaterials)” value is on record as “block the saponin-induced loss of biomaterials from the cells”.
